Source: US20240400507A1, “Substituted Indole Compounds and the Use Thereof” (TROBIO THERAPEUTICS PTY LTD, priority 2021, published 2024)
“Also recorded” adds a separate entry of the source.

Target: T1, Tpm4.2-containing actin microfilaments (Mus musculus, UniProt Q6IRU2)
T1 construct: investigated in primary mouse embryonic fibroblast (PMEF) cells; endogenous in cells; host or cells: primary mouse embryonic fibroblast (PMEF) cells
Experiment: Disruption of Tpm4.2-containing actin microfilaments in PMEF cells, images assessed visually
Format: cell-based
Conditions: PMEF cells stably expressing Tpm4.2 labelled with the NeonGreen fluorophore (footnote a)

T1 sequence (Q6IRU2 whole entry): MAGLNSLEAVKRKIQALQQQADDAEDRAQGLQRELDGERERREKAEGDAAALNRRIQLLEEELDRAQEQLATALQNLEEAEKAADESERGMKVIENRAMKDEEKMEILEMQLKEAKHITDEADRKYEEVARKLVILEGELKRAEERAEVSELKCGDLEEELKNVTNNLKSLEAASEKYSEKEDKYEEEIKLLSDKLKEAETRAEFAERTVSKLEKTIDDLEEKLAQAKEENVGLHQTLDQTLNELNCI

| Filament Disruption (minimum test concentration at which filament disruption was observed) | Structure (SMILES) |
| --- | --- |
| 4.0^a μM | CC(CO)(CO)NCCn1ccc2ccc(OCCc3ccccc3)cc21 [Compound 1, 2-((2-(6-phenethoxy-1H-indol-1-yI)ethyl)amino)-2-methylpropane-1,3-diol] |
| 4.0^a μM | CC(CO)(CO)NCCn1ccc2ccc(OCCc3ccccc3F)cc21 [Compound 2, 2-((2-(6-(2-fluorophenethoxy)-1H-indol-1-yl)ethyl)amino)-2-methylpropane-1,3-diol] |
| 4.0^a μM | CC(CO)(CO)NCCn1ccc2ccc(OCCc3cccc(F)c3)cc21 [Compound 3, 2-((2-(6-(3-fluorophenethoxy)-1H-indol-1-yl)ethyl)amino)-2-methylpropane-1,3-diol] |
| 3.0^a μM | CC(CO)(CO)NCCn1ccc2ccc(OCCc3ccc(F)cc3)cc21 [Compound 4, 2-((2-(6-(4-fluorophenethoxy)-1H-indol-1-yl)ethyl)amino)-2-methylpropane-1,3-diol] |

Target: T1, Tpm4.2-containing actin microfilaments
Experiment: as above
Format: cell-based
Conditions: PMEF cells, treatment versus control condition
Experimental: Example 2—Anti-tropomyosin activity of compounds of formula (I) The ability of compounds of the disclosure to disrupt Tpm4.2-containing actin microfilaments was investigated in primary mouse embryonic fibroblast (PMEF) cells. Cells were seeded at 3×10^4 cells per well in a volume of 1000 μL complete media onto a 12 well plate containing 13 mm coverslips and left to plate down for 24 hours prior to treatment. Cells were then treated with DMSO and two concentrations of the test compounds. 24 hours post-treatment, cells were fixed with 16% paraformaldehyde (PBS) and stained with rabbit polyclonal anti-tropomyosin 6/9d antibody to visualise Tpm4.2. Single plane images were obtained using the Olympus IX83 epi-fluorescence microscope. Ten fields of view were collected for both Tpm4.2 fluorophore and 488-Atto-Phalloidin with each treatment condition. The images were assessed visually to determine if the Tpm4.2 filament network had been disrupted under the treatment condition (Table 1).

| Structure (SMILES) | Effect on Tpm4.2 filament network in representative image (FIG. 1) |
| --- | --- |
| CC(CO)(CO)NCCn1ccc2ccc(NCCc3ccc(F)cc3)cc21 [Compound 13, 2-((2-(6-((4-fluorophenethyl)amino)-1H-indol-1-yl)ethyl)amino)-2-methylpropane-1,3-diol] | parallel filament bundles observed in the control condition are lost and punctate aggregations of Tpm4.2 are observed near the nucleus; also recorded: disruption of the Tpm4.2 filament network |

Same assay, conditions: primary mouse embryonic fibroblast (PMEF) cells, 24 hours treatment, anti-tropomyosin antibody staining of Tpm4.2

| Filament Disruption (minimum test concentration at which filament disruption was observed) [µM] | Structure (SMILES) |
| --- | --- |
| 2.0 | CC(C)(CO)NCCn1ccc2ccc(OCCc3ccc(F)cc3)cc21 [Compound 5, 2-((2-(6-(4-fluorophenethoxy)-1H-indol-1-yl)ethyl)amino)-2-methylpropan-1-ol] |
| 4.0 | OCC(CO)NCCn1ccc2ccc(OCCc3ccc(F)cc3)cc21 [Compound 6, 2-((2-(6-(4-fluorophenethoxy)-1H-indol-1-yl)ethyl)amino)propane-1,3-diol] |
| 2.0 | C[C@@H](CO)NCCn1ccc2ccc(OCCc3ccc(F)cc3)cc21 [Compound 7, (S)-2-((2-(6-(4-fluorophenethoxy)-1H-indol-1-yl)ethyl)amino)propan-1-ol] |
| 2.0 | C[C@H](CO)NCCn1ccc2ccc(OCCc3ccc(F)cc3)cc21 [Compound 8, (R)-2-((2-(6-(4-fluorophenethoxy)-1H-indol-1-yl)ethyl)amino)propan-1-ol] |
| 4.0 | OCCNCCn1ccc2ccc(OCCc3ccc(F)cc3)cc21 [Compound 9, 2-((2-(6-(4-fluorophenethoxy)-1H-indol-1-yl)ethyl)amino)ethan-1-ol] |
| 2.0 | CC(C)(C)NCCn1ccc2ccc(OCCc3ccc(F)cc3)cc21 [Compound 10, N-(2-(6-(4-fluorophenethoxy)-1H-indol-1-yl)ethyl)-2-methylpropan-2-amine] |
| 20 | Fc1ccc(CCOc2ccc3ccn(CCCN4CCOCC4)c3c2)cc1 [Compound 11, 4-(3-(6-(4-fluorophenethoxy)-1H-indol-1-yl)propyl)morpholine] |
| 9.0 | COCC(C)(COC)NCCn1ccc2ccc(OCCc3ccc(F)cc3)cc21 [Compound 12, N-(2-(6-(4-fluorophenethoxy)-1H-indol-1-yl)ethyl)-1,3-dimethoxy-2-methylpropan-2-amine] |
| 2.0 | CC(CO)(CO)NCCn1ccc2ccc(NCCc3ccc(F)cc3)cc21 [Compound 13, 2-((2-(6-((4-fluorophenethyl)amino)-1H-indol-1-yl)ethyl)amino)-2-methylpropane-1,3-diol] |
| 2.0 | CC(CO)(CO)NCCn1ccc2ccc(C(=O)NCc3ccc(F)cc3)cc21 [Compound 14, 1-(2-((1,3-dihydroxy-2-methylpropan-2-yl)amino)ethyl)-N-(4-fluorobenzyl)-1H-indole-6-carboxamide] |
| 6.5 | CC(CO)(CO)NCCn1ccc2ccc(C(=O)OCc3ccc(F)cc3)cc21 [Compound 15, 4-fluorobenzyl 1-(2-((1,3-dihydroxy-2-methylpropan-2-yl)amino)ethyl)-1H-indole-6-carboxylate] |
| 7.5 | Cc1ccccc1CCOc1ccc2ccn(CCNC(C)(CO)CO)c2c1 [Compound 16, 2-methyl-2-((2-(6-(2-methylphenethoxy)-1H-indol-1-yl)ethyl)amino)propane-1,3-diol] |
| 2.0 | Cc1cccc(CCOc2ccc3ccn(CCNC(C)(CO)CO)c3c2)c1 [Compound 17, 2-methyl-2-((2-(6-(3-methylphenethoxy)-1H-indol-1-yl)ethyl)amino)propane-1,3-diol] |
| 5.0 | Cc1ccc(CCOc2ccc3ccn(CCNC(C)(CO)CO)c3c2)cc1 [Compound 18, 2-methyl-2-((2-(6-(4-methylphenethoxy)-1H-indol-1-yl)ethyl)amino)propane-1,3-diol] |
| 7.0 | COc1ccccc1CCOc1ccc2ccn(CCNC(C)(CO)CO)c2c1 [Compound 19, 2-methyl-2-((2-(6-(2-methoxyphenethoxy)-1H-indol-1-yl)ethyl)amino)propane-1,3-diol] |
| 2.0 | COc1cccc(CCOc2ccc3ccn(CCNC(C)(CO)CO)c3c2)c1 [Compound 20, 2-methyl-2-((2-(6-(3-methoxyphenethoxy)-1H-indol-1-yl)ethyl)amino)propane-1,3-diol] |
| 2.5 | COc1ccc(CCOc2ccc3ccn(CCNC(C)(CO)CO)c3c2)cc1 [Compound 21, 2-methyl-2-((2-(6-(4-methoxyphenethoxy)-1H-indol-1-yl)ethyl)amino)propane-1,3-diol] |
| 2.5 | CC(CO)(CO)NCCn1ccc2ccc(OCCc3ccccc3C(F)(F)F)cc21 [Compound 22, 2-methyl-2-((2-(6-(2-(trifluoromethyl)phenethoxy)-1H-indol-1-yl)ethyl)amino)propane-1,3-diol] |
| 2.5 | CC(CO)(CO)NCCn1ccc2ccc(OCCc3ccc(F)c(F)c3)cc21 [Compound 24, 2-methyl-2-((2-(6-(3,4-difluorophenethoxy)-1H-indol-1-yl)ethyl)amino)propane-1,3-diol] |
| 2.5 | Cc1ccc(CCOc2ccc3ccn(CCNC(C)(CO)CO)c3c2)cc1C [Compound 25, 2-methyl-2-((2-(6-(3,4-dimethylphenethoxy)-1H-indol-1-yl)ethyl)amino)propane-1,3-diol] |
